In patent US9283277B2, “Methods and compositions for the treatment of obesity” (Children's Medical Center Corporation, priority 2008, dated 2016):

Columns and labels:
Assay type in all cases: in vivo
[1] = tested on: PERK (Thr980) phosphorylation; test: Hypothalamic PERK (Thr980) phosphorylation in ob/ob mice; details: vs vehicle
Protocol: Nine-week old lean wt and ob/ob mice were orally treated with either PBA (1 g/kg/day) or vehicle (VEH) for 26 days and PERK (Thr980) phosphorylation is examined in the hypothalamus extracts with direct immunoblotting. (B) Ten week-old wt lean and ob/ob mice were intraperitoneally injected with leptin (0.1 mg/kg) after six-hour starvation. Hypothalami were removed 30 minutes after the injections, and pStat3^Tyr705 and total Stat3 levels were examined. (C) Nine-week old lean wt and ob/ob mice were orally treated with PBA (1 g/kg/day) for 10 days. Following the pretreatment period, leptin-deficient ob/ob mice were either administered with VEH or with different doses of leptin through the intraperitoneal route. […]
(a) Hypothalamic PERK phosphorylation (Thr980) after 21 days of vehicle or TUDCA (150 mg/kg/day) treatment. […] Error bars are ±S.E.M., P values are determined by Student's t-test. […]
If the postulate that reduction of ER stress in the hypothalamus increases leptin sensitivity is true, chemical chaperones other than PBA should also create the same effect and sensitize the obese mice to leptin. […] For this purpose we treated ob/ob mice either with vehicle or TUDCA (150 mg/kg/day) for a period of 21 days and analyzed the hypothalamic PERK phosphorylation. […]

ob/ob mice = test: PBA pretreatment and leptin administration in ob/ob mice; details: for initial body weight: vehicle or PBA pretreated
Protocol: Nine-week old lean wt and ob/ob mice were orally treated with either PBA (1 g/kg/day) or vehicle (VEH) for 26 days and PERK (Thr980) phosphorylation is examined in the hypothalamus extracts with direct immunoblotting. (B) Ten week-old wt lean and ob/ob mice were intraperitoneally injected with leptin (0.1 mg/kg) after six-hour starvation. Hypothalami were removed 30 minutes after the injections, and pStat3^Tyr705 and total Stat3 levels were examined. (C) Nine-week old lean wt and ob/ob mice were orally treated with PBA (1 g/kg/day) for 10 days. Following the pretreatment period, leptin-deficient ob/ob mice were either administered with VEH or with different doses of leptin through the intraperitoneal route. The effect of VEH or PBA administration on (C) bodyweight (g), (D) percent decrease in bodyweight and (E) 24-hour food intake (n=3 for VEH and n=4 PBA-treated group). Effect of 5 mg/kg/day leptin administration on (F) bodyweight, (G) percent decrease in bodyweight and (H) 24-hour food intake in VEH- or PBA-treated ob/ob mice (n=3 for VEH and n=4 PBA-treated group). Analysis of the same parameters (body weight, percent decrease in bodyweight and 24-hour food intake) in (I, J, K) 1 mg/kg/day and (L, M, N) 0.1 mg/kg/day leptin-treated mice (n=3 for VEH and n=4 PBA-treated group). Data presented as means±SEM (*p<0.05, **p<0.01, ***p<0.001).
To test whether reduction of ER stress will increase leptin sensitivity of the ob/ob mice, we orally administered PBA or vehicle for 10 days as a pretreatment. Following this period, daily leptin injections (IP) were given at doses ranging from 0.01 mg/kg/day to 5 mg/kg/day. […]

C57BL/6 wt-lean mice = test: TUDCA and leptin co-treatment in C57BL/6 wt-lean mice; details: leptin 1 mg/kg/day, TUDCA 150 mg/kg/day, 30 days
Protocol: Following an initial acclimation period, eight week-old wt lean mice were treated with vehicle (VEH), Leptin (1 mg/kg/day) (L), TUDCA (150 mg/kg/day) (TUD) or leptin and TUDCA together for a period of 30 days. (a) Bodyweight (g), (b) % decrease in bodyweight, (c) Daily food intake (g) of the wt mice treated with VEH, LEP, TUD and TUD+LEP during the experimental period (n=4 in each group). Error bars are ±S.E.M., P values are determined by Student's t-test (*p<0.05, **p<0.01, ***p<0.001).
If the postulate that reduction of ER stress in the hypothalamus increases leptin sensitivity is true, chemical chaperones other than PBA should also create the same effect and sensitize the obese mice to leptin. TUDCA is a hydrophilic bile acid, which has a completely different structure than PBA, but has chemical chaperone activity in common^25. First, we investigated whether TUDCA can reduce ER stress in the hypothalamus of the ob/ob mice. For this purpose we treated ob/ob mice either with vehicle or TUDCA (150 mg/kg/day) for a period of 21 days and analyzed the hypothalamic PERK phosphorylation. […] To address this question we first pretreated the ob/ob mice with TUDCA (150 mg/kg/day) for 5 days and subsequently initiated leptin (1 mg/kg) treatment. […] Body weight of the ob/ob mice decreased further with leptin and TUDCA co-treatment and reached to 34.39±1.30 g from 50.55±1.14 g (Lep vs. TUD+Lep, p<0.001). […] Furthermore, to investigate the metabolic homeostasis in more detail, we placed the mice in metabolic cages. […] Heat generation was the same between the groups (FIG. 5j). Next, we analyzed the whole body fat composition by DEXA scan. […] Finally, analysis of lean mass has shown that none of the treatments lead to a significant change in this parameter ([…]). We additionally investigated the effect of TUDCA and leptin co-treatment on C57BL/6 wt-lean mice.

[2] = oral PBA 1 g/kg/day alone vs vehicle
[3] = leptin 1 mg/kg/day IP, vehicle or PBA (1 g/kg/day) pretreated
[4] = leptin 5 mg/kg/day IP, 16 days, vehicle or PBA (1 g/kg/day) pretreated

| Molecule | PERK (Thr980) phosphorylation in hypothalamus ([1]; PBA 1 g/kg/day orally, 26 days) | leptin sensitization (ob/ob mice; PBA + 0.1 mg/kg/day leptin gives weight loss equivalent to 1 mg/kg/day leptin alone) | body weight (ob/ob mice; [2]) | food consumption (ob/ob mice; [2]) | body weight (C57BL/6 wt-lean mice) | food intake (C57BL/6 wt-lean mice) | hypothalamic PERK phosphorylation (PERK activity) ([1]; TUDCA 150 mg/kg/day, 21 days) | initial body weight (ob/ob mice; before leptin 1 mg/kg/day) [g] | initial body weight (ob/ob mice; before leptin 5 mg/kg/day) [g] | effect on body weight (ob/ob mice; leptin 0.1 mg/kg/day IP alone (vehicle pretreated)) | body weight after treatment (ob/ob mice; [3]) [g] | decrease in bodyweight (ob/ob mice; [3]) [%] | food intake (ob/ob mice; leptin 5 mg/kg/day IP after 10 days vehicle or PBA (1 g/kg/day) pretreatment) | body weight after treatment (ob/ob mice; [4]) [g] | decrease in bodyweight from the initial weight (ob/ob mice; [4]) [%] |
| --- | --- | --- | --- | --- | --- | --- | --- | --- | --- | --- | --- | --- | --- | --- | --- |
| O=C(O)CCCc1ccccc1 [PBA, 4-phenyl butyric acid] | significantly reduced | ten-fold | did not affect | did not affect |  |  |  |  |  |  |  |  |  |  |  |
| C[C@H](CCC(=O)NCCS(=O)(=O)O)[C@H]1CC[C@H]2[C@@H]3[C@@H](O)C[C@@H]4C[C@H](O)CC[C@]4(C)[C@H]3CC[C@]12C [TUDCA, tauroursodeoxycholic acid] |  |  |  |  | did not observe any significant changes | did not observe any significant changes | down regulated |  |  |  |  |  |  |  |  |
| leptin: adipocyte-derived hormone that suppresses appetite |  |  |  |  | did not observe any significant changes | did not observe any significant changes |  | 57.10 ± 0.58 | 56 ± 1.16 | did not significantly reduce | 46.61 ± 0.52 | 17.73 | significantly inhibited | 41.13 ± 2.35 | 27.33±2.65 |
